Source: US20250376461A1, “INDAZOLE DERIVATIVES FOR TREATING TRPM3-MEDIATED DISORDERS” (Katholieke Universiteit Leuven, priority 2022, published 2025)

Each compound was assayed against T1, mouse TRPM3α2 (mTRPM3) ion channel (Mus musculus, UniProt J9SQF3) (assay: TRPM3 ion channel driven Ca2+ uptake, Fluo-4 AM assay, mTRPM3alpha2 overexpressing flip-in HEK293 cells stimulated with pregnenolone sulfate (50 μM)). Conditions: mTRPM3 overexpressing HEK293 cells stimulated with pregnenolone sulfate (50 μM), activity ranges A, B, C.
T1 construct: expressed in transfected cells; host or cells: flip-in HEK293
T1 sequence (J9SQF3 1-1709 isoform J9SQF3-12): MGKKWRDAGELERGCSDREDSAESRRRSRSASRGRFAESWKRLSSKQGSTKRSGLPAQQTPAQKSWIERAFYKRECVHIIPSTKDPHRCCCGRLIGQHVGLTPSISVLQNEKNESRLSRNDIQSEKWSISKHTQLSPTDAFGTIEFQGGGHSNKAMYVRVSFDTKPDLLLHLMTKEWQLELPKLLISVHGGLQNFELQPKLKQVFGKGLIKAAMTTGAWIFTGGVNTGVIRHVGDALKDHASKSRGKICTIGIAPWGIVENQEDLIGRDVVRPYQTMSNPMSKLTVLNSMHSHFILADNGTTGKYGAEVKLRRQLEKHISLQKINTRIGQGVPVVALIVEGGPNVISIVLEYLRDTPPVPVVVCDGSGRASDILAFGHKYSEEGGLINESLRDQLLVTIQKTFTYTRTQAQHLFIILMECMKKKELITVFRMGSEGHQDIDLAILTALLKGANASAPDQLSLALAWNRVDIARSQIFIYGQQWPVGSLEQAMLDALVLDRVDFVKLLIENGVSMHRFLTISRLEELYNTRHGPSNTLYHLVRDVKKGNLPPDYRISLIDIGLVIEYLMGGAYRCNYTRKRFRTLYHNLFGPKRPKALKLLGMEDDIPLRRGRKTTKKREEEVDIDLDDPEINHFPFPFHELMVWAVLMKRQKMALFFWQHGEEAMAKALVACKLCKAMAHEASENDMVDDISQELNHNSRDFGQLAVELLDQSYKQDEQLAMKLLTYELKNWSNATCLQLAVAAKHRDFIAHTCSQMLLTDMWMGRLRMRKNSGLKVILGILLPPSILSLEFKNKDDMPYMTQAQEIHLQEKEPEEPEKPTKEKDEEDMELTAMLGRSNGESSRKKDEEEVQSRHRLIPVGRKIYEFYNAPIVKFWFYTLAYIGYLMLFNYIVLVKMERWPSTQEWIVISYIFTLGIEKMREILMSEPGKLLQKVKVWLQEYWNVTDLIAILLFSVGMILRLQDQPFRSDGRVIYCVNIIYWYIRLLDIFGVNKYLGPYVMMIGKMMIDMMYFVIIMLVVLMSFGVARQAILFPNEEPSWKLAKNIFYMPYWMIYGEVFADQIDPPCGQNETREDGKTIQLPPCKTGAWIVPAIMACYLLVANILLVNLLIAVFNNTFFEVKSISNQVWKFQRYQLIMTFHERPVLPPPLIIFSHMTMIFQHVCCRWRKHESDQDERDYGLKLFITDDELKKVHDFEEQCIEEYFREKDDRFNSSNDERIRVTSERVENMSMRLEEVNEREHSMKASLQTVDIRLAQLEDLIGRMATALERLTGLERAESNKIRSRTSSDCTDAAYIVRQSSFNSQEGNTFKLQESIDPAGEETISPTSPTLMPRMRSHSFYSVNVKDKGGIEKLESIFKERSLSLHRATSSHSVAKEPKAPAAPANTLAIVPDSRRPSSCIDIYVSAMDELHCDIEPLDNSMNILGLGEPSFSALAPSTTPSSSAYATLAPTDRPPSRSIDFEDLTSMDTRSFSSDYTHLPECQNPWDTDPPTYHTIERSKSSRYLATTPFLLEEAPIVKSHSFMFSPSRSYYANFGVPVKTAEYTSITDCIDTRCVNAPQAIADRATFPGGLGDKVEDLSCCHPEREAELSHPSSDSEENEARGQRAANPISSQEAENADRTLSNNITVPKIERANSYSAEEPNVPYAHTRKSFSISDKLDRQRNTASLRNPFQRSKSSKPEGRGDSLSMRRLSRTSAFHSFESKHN
Assay type: cell-based
Method in brief: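 Flip-in HEK293 cells overexpressing mTRPM3α2, loaded with Fluo-4 AM, added at ±2000 cells/well to plates holding compound plus 50 μM pregnenolone sulfate in Ca2+-containing Krebs buffer. Fluorescence (ex 485/em 535 nm) read immediately. Percent inhibition normalised between vehicle and positive-control inhibitor; IC50 derived.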

Structure (SMILES)	IC50 [µM]
Cn1nc2ccc(OCc3ccccn3)cc2c1C(=O)NC1(CO)CC1C(F)F (single isomer, unassigned) [Cpd 237 - En2]	> 20
Cn1ccc(C(C)(CO)NC(=O)c2c3cc(OCc4ccccn4)ccc3nn2C)n1 (single isomer, unassigned) [Cpd 239 - En1]	> 20
Cn1ccc(C(C)(CO)NC(=O)c2c3cc(OCc4ccccn4)ccc3nn2C)n1 (single isomer, unassigned) [Cpd 239 - En2]	> 20
Cn1nc2ccc(OCc3ccccn3)cc2c1C(=O)NC(CO)CC(N)=O (single isomer, unassigned) [Cpd 240 - En1, 4-hydroxy-3-({2-methyl-5-[(pyridin-2-yl)methoxy]-2H-indazol-3-yl}formamido)butanamide]	> 20
Cn1nc2ccc(OCc3ccccn3)cc2c1C(=O)NC(CO)CC(N)=O (single isomer, unassigned) [Cpd 240 - En2, 4-hydroxy-3-({2-methyl-5-[(pyridin-2-yl)methoxy]-2H-indazol-3-yl}formamido)butanamide]	> 20
Cn1nc2ccc(OCc3ccccn3)cc2c1C(=O)NC(CO)C1CCOCC1 (single isomer, unassigned) [Cpd 241 - En2]	> 20
Cn1nc2ccc(OCc3ccccn3)cc2c1C(=O)NC(CO)Cc1ncccn1 (single isomer, unassigned) [Cpd 243 - En1]	> 20
Cn1nc2ccc(OCc3ccccn3)cc2c1C(=O)NC(CO)Cc1ncccn1 (single isomer, unassigned) [Cpd 243 - En2]	> 20
Cn1nc2ccc(OCc3ccccn3)cc2c1C(=O)NCC(O)CC(F)(F)F (single isomer, unassigned) [Cpd 245 - En1]	> 20
Cn1nc2ccc(OCc3ccccn3)cc2c1C(=O)NCC(O)CC(F)(F)F (single isomer, unassigned) [Cpd 245 - En2]	> 20
Cn1nc2ccc(OCc3ccccn3)cc2c1C(=O)NC1CNCC1C(F)(F)F (single isomer, unassigned) [Cpd 246 - En1]	> 20
Cn1nc2ccc(OCc3ccccn3)cc2c1C(=O)NC1(CC(F)F)CCCNC1 (single isomer, unassigned) [Cpd 248 - En1]	> 20
Cn1ccc(C(CO)NC(=O)c2c3cc(OCc4ccccn4)ccc3nn2C)n1 (single isomer, unassigned) [Cpd 251 - En1]	> 20
Cn1ccc(C(CO)NC(=O)c2c3cc(OCc4ccccn4)ccc3nn2C)n1 (single isomer, unassigned) [Cpd 251 - En2]	> 20
Cn1nc2ccc(OCc3ccccn3)cc2c1C(=O)NC(CO)Cc1ccccn1 (single isomer, unassigned) [Cpd 252 - En1]	> 20
Cn1nc2ccc(OCc3ccccn3)cc2c1C(=O)NC(CO)Cc1ccccn1 (single isomer, unassigned) [Cpd 252 - En2]	> 20
Cn1nc2ccc(OCc3ccccn3)cc2c1C(=O)NC(CO)C(F)(F)F (single isomer, unassigned) [Cpd 254 - En2]	> 20
Cn1ccc(NC(=O)c2c3cc(OCc4ccnn4C)ccc3nn2C)n1 [Cpd 006, 2-methyl-N-(1-methyl-1H-pyrazol-3-yl)-5-[(1-methyl-1H-pyrazol-5-yl)methoxy]-2H-indazole-3-carboxamide]	> 20
Cn1nc2ccc(OCc3cccnc3C(F)(F)F)cc2c1C(=O)NCC(C)(C)CO [Cpd 019, N-(3-hydroxy-2,2-dimethylpropyl)-2-methyl-5-{[2-(trifluoromethyl)pyridin-3-yl]methoxy}-2H-indazole-3-carboxamide]	> 20

Continued, values first:

IC50 [µM]	Structure (SMILES)
1 to 20	Cn1nc2ccc(OCc3ccccn3)cc2c1C(=O)NC1(CO)CC1C(F)F (single isomer, unassigned) [Cpd 237 - En1]
1 to 20	Cn1nc2ccc(OCc3ccccn3)cc2c1C(=O)NC(CO)c1nccn1C1CC1 (single isomer, unassigned) [Cpd 238 - En1]
1 to 20	Cn1nc2ccc(OCc3ccccn3)cc2c1C(=O)NC(CO)c1nccn1C1CC1 (single isomer, unassigned) [Cpd 238 - En2]
1 to 20	Cn1nc2ccc(OCc3ccccn3)cc2c1C(=O)NC(CO)C1CCOCC1 (single isomer, unassigned) [Cpd 241 - En1]
< 1	Cn1nc2ccc(OCc3ccccn3)cc2c1C(=O)NC1CNCC1C(F)(F)F (single isomer, unassigned) [Cpd 246 - En2]
1 to 20	Cn1nc2ccc(OCc3ccccn3)cc2c1C(=O)NC1(CC(F)F)CCCNC1 (single isomer, unassigned) [Cpd 248 - En2]
< 1	Cn1nc2ccc(OCc3ccccn3)cc2c1C(=O)NC1(CO)CCNC1=O (single isomer, unassigned) [Cpd 253 - En1]
1 to 20	Cn1nc2ccc(OCc3ccccn3)cc2c1C(=O)NC1(CO)CCNC1=O (single isomer, unassigned) [Cpd 253 - En2]
1 to 20	Cn1nc2ccc(OCc3ccccn3)cc2c1C(=O)NC(CO)C(F)(F)F (single isomer, unassigned) [Cpd 254 - En1]
1 to 20	Cn1nc2ccc(OCc3ccccn3)cc2c1C(=O)NC(C)(CO)CC(F)(F)F (single isomer, unassigned) [Cpd 255 - En1, 2-methyl-5-[(pyridin-2-yl)methoxy]-N-(4,4,4-trifluoro-1-hydroxy-2-methylbutan-2-yl)-2H-indazole-3-carboxamide]
1 to 20	Cn1nc2ccc(OCc3ccccn3)cc2c1C(=O)NC(C)(CO)CC(F)(F)F (single isomer, unassigned) [Cpd 255 - En2, 2-methyl-5-[(pyridin-2-yl)methoxy]-N-(4,4,4-trifluoro-1-hydroxy-2-methylbutan-2-yl)-2H-indazole-3-carboxamide]
1 to 20	COCC(C)(CO)NC(=O)c1c2cc(OCc3ccccn3)ccc2nn1C (single isomer, unassigned) [Cpd 258 - En1]
1 to 20	COCC(C)(CO)NC(=O)c1c2cc(OCc3ccccn3)ccc2nn1C (single isomer, unassigned) [Cpd 258 - En2]
1 to 20	Cc1ncsc1COc1ccc2nn(C)c(C(=O)NC3(CO)CCOCC3)c2c1 [Cpd 001, N-[4-(hydroxymethyl)oxan-4-yl]-2-methyl-5-[(4-methyl-1,3-thiazol-5-yl)methoxy]-2H-indazole-3-carboxamide]
1 to 20	Cn1nc2ccc(OCc3ccccc3)cc2c1C(=O)NC1(CO)CC1 [Cpd 004, 5-(benzyloxy)-N-[1-(hydroxymethyl)cyclopropyl]-2-methyl-2H-indazole-3-carboxamide]
1 to 20	Cc1ncsc1COc1ccc2nn(C)c(C(=O)NC(C)(C)CO)c2c1 [Cpd 005, N-(1-hydroxy-2-methylpropan-2-yl)-2-methyl-5-[(4-methyl-1,3-thiazol-5-yl)methoxy]-2H-indazole-3-carboxamide]
< 1	Cn1nc2ccc(OCc3cccnc3C(F)(F)F)cc2c1C(=O)NC1CCNC1=O (centres unmarked) [Cpd 007, 2-methyl-N-(2-oxopyrrolidin-3-yl)-5-{[2-(trifluoromethyl)pyridin-3-yl]methoxy}-2H-indazole-3-carboxamide]
1 to 20	Cn1nc2ccc(OCc3ccccc3)cc2c1C(=O)NC1CCNC1=O (centres unmarked) [Cpd 008, 5-(benzyloxy)-2-methyl-N-(2-oxopyrrolidin-3-yl)-2H-indazole-3-carboxamide]
1 to 20	Cn1nccc1COc1ccc2nn(C)c(C(=O)NC(C)(CO)CO)c2c1 [Cpd 009, N-(1,3-dihydroxy-2-methylpropan-2-yl)-2-methyl-5-[(1-methyl-1H-pyrazol-5-yl)methoxy]-2H-indazole-3-carboxamide]
1 to 20	Cn1nccc1COc1ccc2nn(C)c(C(=O)NCC(C)(C)CO)c2c1 [Cpd 012, N-(3-hydroxy-2,2-dimethylpropyl)-2-methyl-5-[(1-methyl-1H-pyrazol-5-yl)methoxy]-2H-indazole-3-carboxamide]
1 to 20	Cn1ccc(NC(=O)c2c3cc(OCc4cccnc4C(F)(F)F)ccc3nn2C)n1 [Cpd 013, 2-methyl-N-(1-methyl-1H-pyrazol-3-yl)-5-{[2-(trifluoromethyl)pyridin-3-yl]methoxy}-2H-indazole-3-carboxamide]
1 to 20	Cn1ccc(NC(=O)c2c3cc(OCc4ccccc4)ccc3nn2C)n1 [Cpd 014, 5-(benzyloxy)-2-methyl-N-(1-methyl-1H-pyrazol-3-yl)-2H-indazole-3-carboxamide]
1 to 20	Cn1nccc1COc1ccc2nn(C)c(C(=O)NC(C)(C)CO)c2c1 [Cpd 015, N-(1-hydroxy-2-methylpropan-2-yl)-2-methyl-5-[(1-methyl-1H-pyrazol-5-yl)methoxy]-2H-indazole-3-carboxamide]
< 1	Cn1nc2ccc(OCc3cccnc3C(F)(F)F)cc2c1C(=O)NC(C)(CO)CO [Cpd 016, N-(1,3-dihydroxy-2-methylpropan-2-yl)-2-methyl-5-{[2-(trifluoromethyl)pyridin-3-yl]methoxy}-2H-indazole-3-carboxamide]
1 to 20	Cn1nc2ccc(OCc3ccccc3)cc2c1C(=O)NC(C)(CO)CO [Cpd 017, 5-(benzyloxy)-N-(1,3-dihydroxy-2-methylpropan-2-yl)-2-methyl-2H-indazole-3-carboxamide]
1 to 20	Cc1ncsc1COc1ccc2nn(C)c(C(=O)Nc3ccn(C)n3)c2c1 [Cpd 018, 2-methyl-5-[(4-methyl-1,3-thiazol-5-yl)methoxy]-N-(1-methyl-1H-pyrazol-3-yl)-2H-indazole-3-carboxamide]
1 to 20	Cn1nc2ccc(OCc3ccccc3)cc2c1C(=O)NCC(C)(C)CO [Cpd 020, 5-(benzyloxy)-N-(3-hydroxy-2,2-dimethylpropyl)-2-methyl-2H-indazole-3-carboxamide]
< 1	Cc1ncsc1COc1ccc2nn(C)c(C(=O)NC(C)(CO)CO)c2c1 [Cpd 021, N-(1,3-dihydroxy-2-methylpropan-2-yl)-2-methyl-5-[(4-methyl-1,3-thiazol-5-yl)methoxy]-2H-indazole-3-carboxamide]
